Assay results published in US20150284360A1, “AMIDE DERIVATIVES OF ANILINE-RELATED COMPOUNDS AND COMPOSITIONS THEREOF” (C&C BIOPHARMA, LLC, priority 2014, published 2015).
≈ marks a conversion by molar mass, not a printed value.

Assays:
[1] = Cyclization in simulated gastric fluid (SGF), acidic condition; type: physicochemical; conditions: SGF pH=1.3 with pepsin, 37° C., 4 hours
Method: Simulated gastric fluid (SGF) was prepared by thoroughly mixing diluted hydrochloric acid (16.4 ml), water (800 ml), and 10 g of pepsin together, and then bring the volume up to 1000 ml with water (pH=1.3). Diluted hydrochloric acid was prepared by mixing 234 ml of concentrated hydrochloric acid with water to a final volume of 1000 ml. Lys-CC30.2HCl (2.53 mg) or CC30 were separately dissolved in 200 μl of water to obtain an aqueous solution concentration of 12.6 mg/ml. 4 μl of the Lys-CC30.2HCl solution and the CC30 solution were thoroughly mixed with 1 ml of SGF in separate tubes. The mixtures were placed in an incubator at 37° C. for 4 hours. The samples were diluted with water 50-fold, mixed, and pelleted by centrifugation at 4° C. and 14,000 rpm for 5 min. The supernatants (˜200-300 μl) were used for HPLC-MS analysis.

[2] = In vitro conversion of prodrug Lys-CC30.2HCl to parent drug CC30 in rat plasma (HPLC-MS); type: in vitro ADME; conditions: for % Conversion of prodrug to CC30 / HPLC-MS Peak Area of Prodrug, Lys-CC30•2HCl: rat plasma; for HPLC-MS Peak Area of Parent Drug, CC30: formed from Lys-CC30•2HCl in rat plasma
Method: Lys-CC30.2HCl (2.53 mg) was dissolved in 200 μl of water to obtain an aqueous solution concentration of 12.6 mg/ml. 4 μl of the Lys-CC30.2HCl solution was thoroughly mixed with 100 μl of rat plasma. This mixture was divided into 10 aliquots (10 μl) placed in 1.5 ml tubes. One tube was placed on ice and was used as the 0 time point. The other 9 samples were placed in an incubator at 37° C. At 5, 10, 30, 60, 120, and 240 minutes, a tube was taken out from incubation and placed on ice to stop or slow down the reaction. The samples were diluted with water (50-fold), mixed, and pelleted by centrifugation at 4° C. and 14,000 rpm for 5 min. The supernatant (˜200-300 μl) was used for HPLC-MS analysis. The % conversion was calculated by dividing the peak area of the parent drug by the peak area of the prodrug at time 0, and then multiplying by 100 (Table 10).
After 60 minutes of incubation, almost half (44.7%) of the Lys-CC30.2HCl prodrug converted to CC30 (Table 10).

[3] = In vivo conversion of prodrug Lys-CC30.2HCl to parent drug CC30 in a rat after intravenous administration (plasma, HPLC-MS); set-up: species or system Sprague-Dawley rat; conditions: for HPLC-MS Peak Area of Prodrug, Lys-CC30•2HCl in the rat: rat plasma, Lys-CC30.2HCl 2 mg/kg intravenous; for HPLC-MS Peak Area of Parent drug, CC30 in the rat: rat plasma after Lys-CC30.2HCl 2 mg/kg intravenous
Method: A Male Sprague-Dawley rat weighing 200-220 g was used to study the pharmacokinetics of the prodrug Lys-CC30.2HCl. Food was prohibited for 12 hours before the experiment, but water was freely available. Blood samples (0.2 ml) were collected through orbital venous plexus blood into heparinized 1.5 ml polyethene tubes at 0, 2, 5, 10, 15, 20, 30, 45 and 60 minute time points after the intravenous administration of Lys-CC30.2HCl (2 mg/kg). The samples were immediately centrifuged at 3000 g for 10 minutes. The plasma obtained (100 μl) was stored at −20° C. until analyzed. Plasma Lys-CC30.2HCl and parent drug CC30 concentrations in the collected blood samples were analyzed by HPLC-MS.
The parent drug was detected in the rat for at least 60 minutes, whereas the prodrug was no longer detected after 20 minutes (Table 11)(FIG. 10B).

[4] = Solubility of a compound in water; type: physicochemical; conditions: compound added until saturated
Method: Solubility of a compound was obtained by adding the compound into water of known volume (e.g. 1 mL) until saturated, measuring the amount of the compound added, and obtaining the solubility of the compound in water (mg/mL) (Table 9).

[5] = after Lys-CC30.2HCl 2 mg/kg intravenous

Cl.Cl.NCCCC[C@H](N)C(=O)Nc1ccccc1NC(=O)CCCCCC(=O)Nc1cccc(Br)c1 [Lys-CC30•2HCl]
Formation of cyclized product (in words) [1]: No similarly cyclized product was formed | % Conversion of prodrug to CC30 ([2]; 37° C., 5 min): 14.2% | HPLC-MS Peak Area of Prodrug, Lys-CC30•2HCl ([2]; 37° C., 5 min): 5900784 | % Conversion of prodrug to CC30 ([2]; 37° C., 10 min): 18.3% | HPLC-MS Peak Area of Prodrug, Lys-CC30•2HCl ([2]; 37° C., 10 min): 5623041 | % Conversion of prodrug to CC30 ([2]; 37° C., 30 min): 33.0% | HPLC-MS Peak Area of Prodrug, Lys-CC30•2HCl ([2]; 37° C., 30 min): 5199304 | % Conversion of prodrug to CC30 ([2]; 37° C., 60 min): 44.7% | HPLC-MS Peak Area of Prodrug, Lys-CC30•2HCl ([2]; 37° C., 60 min): 3678701 | % Conversion of prodrug to CC30 ([2]; 37° C., 60 min, listed as Lys-CC30.2HCl): 44.7% | % Conversion of prodrug to CC30 ([2]; 37° C., 120 min): 69.2% | HPLC-MS Peak Area of Prodrug, Lys-CC30•2HCl ([2]; 37° C., 120 min): 921181 | % Conversion of prodrug to CC30 ([2]; 37° C., 240 min): 71.8% | HPLC-MS Peak Area of Prodrug, Lys-CC30•2HCl ([2]; 37° C., 240 min): 498331 | HPLC-MS Peak Area of Prodrug, Lys-CC30•2HCl ([2]; 37° C., time 0 min (on ice)): 6182672 | % Conversion of prodrug to CC30 ([2]; time 0 min, parent peak area / prodrug peak area at time 0 x 100): 10.0% | Time after which the prodrug was no longer detected in the rat [3, 5]: 20 min | Conversion in the rat to the parent drug CC30 (in words) ([3]; after injection of Lys-CC30.2HCl 2 mg/kg intravenous, time zero): immediately started converting | HPLC-MS Peak Area of Prodrug, Lys-CC30•2HCl in the rat ([3]; 0 min): 5199661 | HPLC-MS Peak Area of Prodrug, Lys-CC30•2HCl in the rat ([3]; 2 min): 2388965 | HPLC-MS Peak Area of Prodrug, Lys-CC30•2HCl in the rat ([3]; 5 min): 838012 | HPLC-MS Peak Area of Prodrug, Lys-CC30•2HCl in the rat ([3]; 10 min): 173555 | HPLC-MS Peak Area of Prodrug, Lys-CC30•2HCl in the rat ([3]; 15 min): 40200 | HPLC-MS Peak Area of Prodrug, Lys-CC30•2HCl in the rat ([3]; 20 min): 8674 | Solubility in Water [4]: 750 mg/mL

Nc1ccccc1NC(=O)CCCCCC(=O)Nc1cccc(Br)c1 [CC30]
Fraction that formed an inactive cyclized product [1]: 5% | HPLC-MS Peak Area of Parent Drug, CC30 ([2]; 37° C., 5 min): 880074 | HPLC-MS Peak Area of Parent Drug, CC30 ([2]; 37° C., 10 min): 1131442 | HPLC-MS Peak Area of Parent Drug, CC30 ([2]; 37° C., 30 min): 2039869 | HPLC-MS Peak Area of Parent Drug, CC30 ([2]; 37° C., 60 min): 2762843 | HPLC-MS Peak Area of Parent Drug, CC30 ([2]; 37° C., 120 min): 4280514 | HPLC-MS Peak Area of Parent Drug, CC30 ([2]; 37° C., 240 min): 4438887 | HPLC-MS Peak Area of Parent Drug, CC30 ([2]; time 0 min (on ice)): 617276 | Time for which the parent drug was detected in the rat [3, 5]: at least 60 minutes | HPLC-MS Peak Area of Parent drug, CC30 in the rat ([3]; 0 min): 4792335 | HPLC-MS Peak Area of Parent drug, CC30 in the rat ([3]; 2 min): 2994581 | HPLC-MS Peak Area of Parent drug, CC30 in the rat ([3]; 5 min): 2162228 | HPLC-MS Peak Area of Parent drug, CC30 in the rat ([3]; 10 min): 1225981 | HPLC-MS Peak Area of Parent drug, CC30 in the rat ([3]; 15 min): 712348 | HPLC-MS Peak Area of Parent drug, CC30 in the rat ([3]; 20 min): 425079 | HPLC-MS Peak Area of Parent drug, CC30 in the rat ([3]; 30 min): 232663 | HPLC-MS Peak Area of Parent drug, CC30 in the rat ([3]; 45 min): 199152 | HPLC-MS Peak Area of Parent drug, CC30 in the rat ([3]; 60 min): 44686 | Solubility in Water [4]: 0.006 mg/mL (≈ 14.8 µM)
